Assay results published in PMC4186430, “Modeling of age-dependent amyloid accumulation and γ-secretase inhibition of soluble and insoluble Aβ in a transgenic mouse model of amyloid deposition” (Pharmacology Research & Perspectives, 2013).
Marks after values point to notes of the source that are not given here.

What was measured:
[1] = Plasma unbound fraction; format: in vitro ADME; details: observed, read-out: fu,pl (plasma unbound fraction)
[2] = system: insoluble Aβ40; assay: Insoluble (FA) brain Aβ40 levels in Tg2576 mice after MRK-560, ELISA; format: in vivo, Tg2576 transgenic mice
Excerpt: C57BL/6 female mice (Harlan Laboratories, Horst, The Netherlands), Tg2576 transgenic female mice (Taconics, Georgetown, NY), overexpressing human APP with the Swedish mutation (Hsiao et al. [1996]), and Tg2576 wild-type littermates were used in the experiments. The C57BL/6 and wild-type littermates were only used for pharmacokinetic PK sampling and analysis. The housing environment was humidity- and temperature-controlled with a constant 12-h light/dark cycle. The animals were kept in conventional housing (5–10 mice per cage) and had access to standard rodent chow and tap water ad libitum. The transgenic mice were aged at the local AstraZeneca (AZ) animal facilities. On the day of study, the mice were weighed. MRK-560 (synthesized in-house; AZ) or vehicle was administered by oral gavage. Three types of vehicles were used: (1) 1% MCC/NaCMC (Microcrystalline Cellulose/Sodiumcarboxymethyl Cellulose) +0.6% lipoid S100, (2) 20% HPβCD in 0.1 mol/L Meglumine, and (3) 40% HPβCD in 0.3 mol/L Meglumine. Observations of the animals’ health were made throughout all the experiments. Data from 23 MRK-560 studies were used in this analysis and details of all studies can be found in Table 1. For the AP analysis, data from vehicle and untreated Tg2576 mice from 48 additional (i.e., non-MRK-560) in-house studies were used. The additional dataset consisted of Aβ levels measured in Tg2576 mice of various ages, between 3.5 and 26 months at termination. Details of those data can be found in Appelkvist et al. ([2011]). In total, data from 71 preclinical studies were used.
After blood sampling, mice were sacrificed by decapitation followed by brain samples collection. Cerebellum and olfactory bulbs were removed and the forebrain was divided into left and right hemispheres, weighed, and snap frozen.
Left hemisphere of the cerebrum was sequentially extracted by diethylamine (DEA) followed by formic acid (FA) to obtain soluble and insoluble fractions of Aβ species, respectively. In short, brain tissue was sonicated in 1:18 (w/v) 0.2% DEA and 50 mmol/L NaCl, pH 11.6. After centrifugation (133,000g, 4°C, 1 h), the supernatant (soluble Aβ) was recovered, neutralized to a pH of 8.0 using 2 mol/L Tris-HCl, and immediately frozen to -70°C. The remaining pellet was sonicated in 1:18 (w/v) 70% FA. Homogenates were centrifuged at +4°C for 1 h at 133,000g. Recovered supernatants (insoluble Aβ) were neutralized to pH 7.5 with 1 mol/L Tris at 1:20 (w/v) dilutions, frozen on dry ice, and stored at −70°C until analysis.
Amyloid beta (Aβ40) and Aβ42 concentrations were measured in plasma, in soluble (DEA), and insoluble (FA) brain fractions using commercial sandwich ELISA kits (KHB3482 from Invitrogen, Carlsbad, CA, and RUO80177 from Innogenetics, Gent, Belgium). To compensate for matrix effects, plasma or brain homogenates from non-transgenic mice were used for preparation of standard curves. The lower and higher limits of quantification (LLOQ and HLOQ) were determined for each immunoassay plate based on the lowest and highest standard point, respectively. The coefficient of variation was less than20% and the accuracy was between 80% and 120%.
Statistical comparisons of the vehicle and MRK-560 treatment data were made by unpaired t-tests. The level of significance was set at P < 0.05. All analyses were performed using GraphPad Prism (GraphPad Prism Software Inc., San Diego, CA) and results were reported as mean ± SEM.

[3] = system: total Aβ40; parameters: method as in Best et al. [2007]; details: 12-month-old Tg2576 mice; ref Best et al. [2007]; cited from earlier work

fraction unbound [1]: 0.004
Compound: O=S(=O)(NC1CCC(c2cc(F)ccc2F)(S(=O)(=O)c2ccc(Cl)cc2)CC1)C(F)(F)F (stereo not drawn) [MRK-560, N-[cis-4-[(4-chlorophenyl)-sulfonyl]-4-(2,5-difluorophenyl)cyclohexyl]-1,1,1-trifluoromethanesulfonamide]
Effect on insoluble Aβ40 ([2]; study 8, Tg2576, 24 weeks at start, 0.5 μmol/kg p.o., 30 days, 3 h since last dosing): −8% | Effect on insoluble Aβ40 ([2]; study 8, Tg2576, 24 weeks at start, 6 μmol/kg p.o., 30 days, 3 h since last dosing, P < 0.05): −57 ^* % | Effect on insoluble Aβ40 ([2]; study 9, Tg2576, 24 weeks at start, 0.5 μmol/kg p.o., 94 days, 3 h since last dosing): 3% | Effect on insoluble Aβ40 ([2]; study 9, Tg2576, 24 weeks at start, 6 μmol/kg p.o., 94 days, 3 h since last dosing): 32% | Effect on insoluble Aβ40 ([2]; study 10, Tg2576, 24 weeks at start, 1 μmol/kg p.o., 29 days, 3 h since last dosing, P < 0.05): −40 ^* % | Effect on insoluble Aβ40 ([2]; study 10, Tg2576, 24 weeks at start, 3 μmol/kg p.o., 29 days, 3 h since last dosing, P < 0.05): −42 ^* % | Effect on insoluble Aβ40 ([2]; study 10, Tg2576, 24 weeks at start, 6 μmol/kg p.o., 29 days, 3 h since last dosing, P < 0.05): −69 ^* % | Effect on insoluble Aβ40 ([2]; study 11, Tg2576, 24 weeks at start, 6 μmol/kg p.o., 30 days, 3 h since last dosing, P < 0.05): −31 ^* % | Effect on insoluble Aβ40 ([2]; study 15, Tg2576, 36 weeks at start, 6 μmol/kg p.o., vehicle 3, 8 days, 3 h since last dosing): 2% | Effect on insoluble Aβ40 ([2]; study 17, Tg2576, 68 weeks at start, 6 μmol/kg p.o., 4 days, 3 h since last dosing): −7.6% | Effect on insoluble Aβ40 ([2]; study 20, Tg2576, 32 weeks at start, 30 μmol/kg p.o., 21 days, 4.5 h since last dosing): −70% | Effect on insoluble Aβ40 ([2]; study 21, Tg2576, 36 weeks at start, 6 μmol/kg p.o., vehicle 3, 8 days, 3 h since last dosing): −30% | Effect on insoluble Aβ40 ([2]; study 22, Tg2576, 24–28 weeks at start, 30 μmol/kg p.o., 45 days, 4.5 h since last dosing, P < 0.05): −57 ^* % | Effect on insoluble Aβ40 ([2]; study 23, Tg2576, 37–40 weeks at start, 30 μmol/kg p.o., 28 days, 4.5 h since last dosing, P < 0.05): −67 ^* % | decrease in total Aβ40 levels [3]: 43%
